These results are taken from patent US20250009742A1 (priority 2021, published 2025).

A word on the IC50: it is the concentration needed to halve the response being measured. A high value points to lower potency.

The subject of this experiment is intracellular HBV DNA. As to the kind of experiment: Real-time PCR for intracellular HBV DNA in HepAD38 cells. It is filed as cell-based. To be noted: Hepatitis B virus, HePAD38, 65 h, 65 hours treatment. The procedure:
HepAD38 cells were cultured in DMEM medium (Welgene) supplemented with 200 unit/mL penicillin, 200 μg/mL streptomycin, and 10% FBS. During maintenance and passage, the cells were cultured together with 0.4 μg/mL tetracycline. Two days before the treatment with compounds for inducing HBV replication was started, the medium was replaced with a tetracycline-free complete growth medium. […]
HepAD38 cells were treated with a compound for 65 hours and then recovered, and intracellular HBV DNA was extracted therefrom according to the protocol in the DNeasy Blood & Tissue Kit (Qiagen). The primers and probes used to quantify HBV DNA were 5′-[…]-3′, 5′-[…]-3′, and 5′-/56-FAM/TGT CCT GGT/ZEN/TAT CGC TGG ATG TGT CT/3IABkFQ/-3′. The HBV DNA was amplified by real-time PCR assay using LightCycler 480 (Roche) (J. Virol., 2018, 92(16):e00339-18). All of the processes were confirmed in duplicate.
For orientation: In qPCR the cycle at which signal appears reflects the starting amount.
In the case of `N#Cc1ccc(N(Cc2cc(C(F)F)[nH]n2)C(=O)Nc2ccc(F)c(Cl)c2)cn1` [Example 126, 3-(3-chloro-4-fluorophenyl)-1-(6-cyanopyridin-3-yl)-1-((5-(difluoromethyl)-1H-pyrazol-3-yl)methyl)urea], inhibition was half-maximal at 540 nM (IC50).
Next, `COc1ncc(N(Cc2cc(C(F)(F)F)[nH]n2)C(=O)Nc2nc(F)ccc2F)cn1` [Example 169, 3-(3,6-difluoropyridin-2-yl)-1-(2-methoxypyrimidin-5-yl)-1-((5-(trifluoromethyl)-1H-pyrazol-3-yl)methyl)urea]: above 1100 nM.
With `COc1ncc(N(Cc2cc(C(F)(F)F)[nH]n2)C(=O)NC23CC(C2)C3)cn1` [Example 1, 3-(bicyclo[1.1.1]pentan-1-yl)-1-(2-methoxypyrimidin-5-yl)-1-((5-(trifluoromethyl)-1H-pyrazol-3-yl)methyl)urea] the figure was above 1100 nM.
With `COc1ccc(N(Cc2cc(C(F)(F)F)[nH]n2)C(=O)Nc2ccc(F)c(C(F)F)c2)nn1` [Example 200, 3-(3-(difluoromethyl)-4-fluorophenyl)-1-(6-methoxypyridazin-3-yl)-1-((5-(trifluoromethyl)-1H-pyrazol-3-yl)methyl)urea] the figure was above 1100 nM; with `N#Cc1ccc(N(Cc2n[nH]c3c2CCCO3)C(=O)Nc2ccc(F)c(Cl)c2)cn1` [Example 124, 3-(3-chloro-4-fluorophenyl)-1-(6-cyanopyridin-3-yl)-1-((1,4,5,6-tetrahydropyrano[2,3-c]pyrazol-3-yl)methyl)urea], 47 nM; with `COc1ncc(N(Cc2cc(C(F)F)[nH]n2)C(=O)Nc2cccc(C#N)c2)cn1` [Example 147, 3-(3-cyanophenyl)-1-((5-(difluoromethyl)-1H-pyrazol-3-yl)methyl)-1-(2-methoxypyrimidin-5-yl)urea], 80 nM.
`COc1ncc(N(Cc2cc(C(F)F)[nH]n2)C(=O)Nc2ccc(F)c(Cl)c2)cn1` [Example 84, 3-(3-chloro-4-fluorophenyl)-1-((5-(difluoromethyl)-1H-pyrazol-3-yl)methyl)-1-(2-methoxypyrimidin-5-yl)urea] returned a 50% inhibitory concentration (IC50) of 17 nM.
The compound `COc1ncc(N(Cc2n[nH]c(C(F)F)c2CC(C)(C)O)C(=O)Nc2ccc(F)c(C(F)F)c2)cn1` [Example 208, 1-((5-(difluoromethyl)-4-(2-hydroxy-2-methylpropyl)-1H-pyrazol-3-yl)methyl)-3-(3-(difluoromethyl)-4-fluorophenyl)-1-(2-methoxypyrimidin-5-yl)urea] came in with an IC50 above 1100 nM.
Next, `COc1ncc(N(Cc2cc(C#N)[nH]n2)C(=O)Nc2ccc(F)c(C(F)F)c2)cn1` [Example 209, 1-((5-cyano-1H-pyrazol-3-yl)methyl)-3-(3-(difluoromethyl)-4-fluorophenyl)-1-(2-methoxypyrimidin-5-yl)urea]: 16 nM; `COc1ncc(N(Cc2cc(C(F)F)[nH]n2)C(=O)Nc2ccc(Cl)nc2Cl)cn1` [Example 166, 3-(2,6-dichloropyridin-3-yl)-1-((5-(difluoromethyl)-1H-pyrazol-3-yl)methyl)-1-(2-methoxypyrimidin-5-yl)urea]: above 1100 nM.
Next, `COc1ncc(N(Cc2cc(C(F)(F)F)[nH]n2)C(=O)Nc2cnc(F)c(Cl)c2)cn1` [Example 107, 3-(5-chloro-6-fluoropyridin-3-yl)-1-(2-methoxypyrimidin-5-yl)-1-((5-(trifluoromethyl)-1H-pyrazol-3-yl)methyl)urea]: 62 nM; `COc1ncc(N(Cc2cc(C(F)(F)F)[nH]n2)C(=O)Nc2ccc(Cl)nc2Cl)cn1` [Example 165, 3-(2,6-dichloropyridin-3-yl)-1-(2-methoxypyrimidin-5-yl)-1-((5-(trifluoromethyl)-1H-pyrazol-3-yl)methyl)urea]: above 1100 nM; `COc1ncc(N(Cc2cc(C(F)(F)F)[nH]n2)C(=O)Nc2ccnc(Br)c2F)cn1` [Example 4, 3-(2-bromo-3-fluoropyridin-4-yl)-1-(2-methoxypyrimidin-5-yl)-1-((5-(trifluoromethyl)-1H-pyrazol-3-yl)methyl)urea]: 21 nM.
Next, `COc1ncc(N(Cc2cc(C(F)(F)F)[nH]n2)C(=O)Nc2nc(F)c(F)cc2F)cn1` [Example 221, 1-(2-methoxypyrimidin-5-yl)-1-((5-(trifluoromethyl)-1H-pyrazol-3-yl)methyl)-3-(3,5,6-trifluoropyridin-2-yl)urea]: above 1100 nM; `COc1ncc(N(Cc2cc(C#N)[nH]n2)C(=O)Nc2ccc(F)c(C#N)c2)cn1` [Example 157, 1-((5-cyano-1H-pyrazol-3-yl)methyl)-3-(3-cyano-4-fluorophenyl)-1-(2-methoxypyrimidin-5-yl)urea]: 66 nM; `COc1ncc(N(Cc2cc(C(F)(F)F)[nH]n2)C(=O)Nc2cc(F)c(F)c(C#N)c2)cn1` [Example 149, 3-(3-cyano-4,5-difluorophenyl)-1-(2-methoxypyrimidin-5-yl)-1-((5-(trifluoromethyl)-1H-pyrazol-3-yl)methyl)urea]: 600 nM.
Take `COc1ncc(N(Cc2cc(C(F)(F)F)[nH]n2)C(=O)Nc2cccc(F)n2)cn1` [Example 183, 3-(6-fluoropyridin-2-yl)-1-(2-methoxypyrimidin-5-yl)-1-((5-(trifluoromethyl)-1H-pyrazol-3-yl)methyl)urea]: the IC50 was above 1100 nM.
With `COc1ncc(N(Cc2cc(C(F)F)[nH]n2)C(=O)Nc2ccc(F)c(C(F)F)c2)cn1` [Example 190, 1-((5-(difluoromethyl)-1H-pyrazol-3-yl)methyl)-3-(3-(difluoromethyl)-4-fluorophenyl)-1-(2-methoxypyrimidin-5-yl)urea], the midpoint of inhibition, the IC50, lay at 20 nM.
In turn, `O=C(Nc1ccc(F)c(Cl)c1)N(Cc1cc(C(F)(F)F)[nH]n1)C12CC(C1)C2` [Example 137, 1-(bicyclo[1.1.1]pentan-1-yl)-3-(3-chloro-4-fluorophenyl)-1-((5-(trifluoromethyl)-1H-pyrazol-3-yl)methyl)urea] yielded an IC50 of 370 nM. This IC50 lies about 18-fold higher than the previous one.
The compound `COC12CC(N(Cc3cc(C(F)(F)F)[nH]n3)C(=O)Nc3ccc(F)c(C#N)c3)(C1)C2` [Example 162, 3-(3-cyano-4-fluorophenyl)-1-(3-methoxybicyclo[1.1.1]pentan-1-yl)-1-((5-(trifluoromethyl)-1H-pyrazol-3-yl)methyl)urea] registered an IC50 of 36 nM.
With `COc1ccc(N(Cc2cc(C(F)F)[nH]n2)C(=O)Nc2ccc(F)c(C(F)F)c2)cn1` [Example 191, 1-((5-(difluoromethyl)-1H-pyrazol-3-yl)methyl)-3-(3-(difluoromethyl)-4-fluorophenyl)-1-(6-methoxypyridin-3-yl)urea] the figure was 24 nM; with `CCOCCc1c(CN(C(=O)Nc2ccc(F)c(Cl)c2)c2ccc(OC)nc2)n[nH]c1C(F)(F)F` [Example 85, 3-(3-chloro-4-fluorophenyl)-1-((4-(2-ethoxyethyl)-5-(trifluoromethyl)-1H-pyrazol-3-yl)methyl)-1-(6-methoxypyridin-3-yl)urea], 230 nM; with `COc1ncc(N(Cc2cc(C(F)(F)F)[nH]n2)C(=O)NC23CC(C)(C2)C3)cn1` [Example 217, 1-(2-methoxypyrimidin-5-yl)-3-(3-methylbicyclo[1.1.1]pentan-1-yl)-1-((5-(trifluoromethyl)-1H-pyrazol-3-yl)methyl)urea], above 1100 nM.
